# Reference: patent publication US10829492B2, “Amino pyrazolopyrimidine compound used as neurotrophic factor tyrosine kinase receptor inhibitor” (CHIA TAI TIANQING PHARMACEUTICAL GROUP CO., LTD., priority 2016, dated 2020)
# pIC50: −log10 of the molar value.
# Molecular target: TrkA kinase (Homo sapiens (Human), UniProt P04629)
# Assay: HTRF assay for inhibitory activity (IC50) against NTRK kinase, TrkA
# Assay type: biochemical
# Conditions: Table 1, ATP 40 μM, kinase 0.5 nM
# Experimental: 1. Assay for Inhibitory Activity (IC50) Against NTRK Kinase
# A testing platform for TrkA, TrkB and TrkC kinase activity was established based on Homogeneous Time-Resolved Fluorescence (HTRF) assay, and the activities of the compounds were tested using the platform. The compounds were subjected to three-fold gradient dilution with 100% DMSO with a starting concentration of 1 mM (11 concentrations in total). 4 μL of diluted sample for each concentration was added to 96 μL of reaction buffer (50 mM HEPES, pH7.4, 5 mM MgCl2, 1 mM NaVO3, 0.001% Tween-20, 0.01% BSA and 1 mM DTT) and mixed homogeneously to be used as a 4* compound. The reaction buffer was used to formulate 2* TrkA, TrkB and TrkC kinases (purchased from Carna Biosciences 08-186, 08-187, 08-197, and the final concentrations thereof were 0.5 nM, 0.1 nM, and 1 nM, respectively) and 4* substrate mixture (ATP+TK peptide) (wherein the final concentrations of ATP were 40 μM, 50 μM, and 20 μM, respectively; TK peptide, HTRF® KinEASE™-TK, was purchased from Cisbio, and the final concentration thereof was 100 nM) for use. 2.5 μL of the 4* compound was added to a 384-well plate (OptiPlate-384, purchased from PerkinElmer), and then 5 μL of the 2* TrkA, TrkB and TrkC kinases were added, and mixed homogeneously by centrifugation. Then 2.5 μL of the 4* substrate mixture was added to initiate the reaction (the total reaction volume is 10 μL). The 384-well plate was placed in an incubator and incubated for 60 min at 23° C. Then the reaction was terminated by adding 5 μL of Eu3+ cryptate-labeled anti-phosphotyrosine antibody (HTRF® KinEASE™-TK, purchased from Cisbio), and 5 μL of Streptavidin-XL-665 (HTRF® KinEASE™-TK, purchased from Cisbio). After incubated for 1 hr in the incubator, the fluorescence values were read on Envision (purchased from PerkinElmer). The excitation wavelength was 320 nm, and the emission wavelengths for detection were 665 nm and 620 nm. The enzymatic activity was represented by a ratio of the two readout at the two emission wavelengths. The enzymatic activity for each compound was tested at 11 concentrations, and IC50 values of the compounds were obtained by calculating the data using GraFit6.0 software (Erithacus Software).
# Sequence of TrkA kinase (P04629 33-796): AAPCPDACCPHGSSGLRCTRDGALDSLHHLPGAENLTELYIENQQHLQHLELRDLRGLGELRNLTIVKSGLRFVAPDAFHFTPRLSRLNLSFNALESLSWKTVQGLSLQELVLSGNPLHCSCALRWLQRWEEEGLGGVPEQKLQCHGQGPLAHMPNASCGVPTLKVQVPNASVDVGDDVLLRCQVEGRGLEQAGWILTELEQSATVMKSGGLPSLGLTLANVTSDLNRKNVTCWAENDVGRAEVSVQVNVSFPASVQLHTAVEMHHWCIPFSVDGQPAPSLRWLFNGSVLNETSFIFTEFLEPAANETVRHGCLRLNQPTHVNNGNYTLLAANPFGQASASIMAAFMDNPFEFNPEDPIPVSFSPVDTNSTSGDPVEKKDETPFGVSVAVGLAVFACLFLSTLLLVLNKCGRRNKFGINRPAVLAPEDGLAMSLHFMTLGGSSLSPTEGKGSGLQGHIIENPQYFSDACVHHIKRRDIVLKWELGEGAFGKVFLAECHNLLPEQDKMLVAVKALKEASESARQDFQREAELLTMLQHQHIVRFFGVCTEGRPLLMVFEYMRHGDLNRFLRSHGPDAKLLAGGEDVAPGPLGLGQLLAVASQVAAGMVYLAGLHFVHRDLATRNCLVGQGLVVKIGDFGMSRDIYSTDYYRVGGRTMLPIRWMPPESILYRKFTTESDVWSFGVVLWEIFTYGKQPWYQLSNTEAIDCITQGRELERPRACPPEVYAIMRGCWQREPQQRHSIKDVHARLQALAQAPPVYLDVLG
row,Structure (SMILES),pIC50
1,"CCOC(=O)c1c(NC)nn2ccc(N3CCC[C@@H]3c3cc(F)ccc3F)nc12 [Example 20, ethyl (R)-5-(2-(2,5-difluorophenyl)pyrrolidin-1-yl)-2-(methylamino)pyrazolo[1,5-a]pyrimidine-3-carboxylate]",> 6.00
2,"Nc1nn2ccc(N3CCCC3c3cc(F)ccc3F)nc2c1-c1cccc(N2CCOCC2)c1 (stereo not drawn) [Example 33, 5-(2-(2,5-difluorophenyl)pyrrolidin-1-yl)-3-(3-morpholinylphenyl)pyrazolo[1,5-a]pyrimidin-2-amine]",> 7.60
3,"Nc1nn2ccc(N3C[C@@H](F)C[C@@H]3c3cc(F)ccc3F)nc2c1C(=O)NOCCO [Example 50, 2-amino-5-((2R,4S)-2-(2,5-difluorophenyl)-4-fluoropyrrolidin-1-yl)-N-(2-hydroxyethoxy)pyrazolo[1,5-a]pyrimidine-3-carboxamide]",> 9.00
4,"Nc1nn2ccc(N3CCC[C@@H]3c3cc(F)ccc3F)nc2c1C(=O)O [Example 2, (R)-2-amino-5-(2-(2,5-difluorophenyl)pyrrolidin-1-yl)pyrazolo[1,5-a]pyrimidine-3-carboxylic Acid]",> 7.00
5,"Nc1cc2nc(N3CCCC3c3cc(F)ccc3F)ccn2n1 (stereo not drawn) [Example 24, 5-(2-(2,5-difluorophenyl)pyrrolidin-1-yl)pyrazolo[1,5-a]pyrimidin-2-amine]",> 6.30
6,"CCOC(=O)c1coc(-c2c(NCc3ccc(OC)cc3)nn3ccc(N4CCCC4c4cc(F)ccc4F)nc23)n1 (stereo not drawn) [Example 26, ethyl 2-(5-(2-(2,5-difluorophenyl)pyrrolidin-1-yl)-2-((4-methoxybenzyl)amino)pyrazolo[1,5-a]pyrimidin-3-yl)oxazole-4-carboxylate]",> 7.00
7,"CCOC(=O)c1c(N)nn2ccc(N3C[C@@H](F)C[C@H]3c3cc(F)ccc3F)nc12 [Example 37, ethyl 2-amino-5-((2S,4S)-2-(2,5-difluorophenyl)-4-fluoropyrrolidin-1-yl)pyrazolo[1,5-a]pyrimidine-3-carboxylate]",> 6.30
8,Cc1csc(-c2c(N)nn3ccc(N4CCCC4c4cc(F)ccc4F)nc23)n1 (stereo not drawn) [Example 28],> 7.60
9,"Nc1nn2ccc(N3C[C@@H](F)C[C@@H]3c3cc(F)ccc3F)nc2c1C(=O)NC1(CO)CC1 [Example 52, 2-amino-5-((2R,4S)-2-(2,5-difluorophenyl)-4-fluoropyrrolidin-1-yl)-N-(1-(hydroxymethyl)cyclopropyl)pyrazolo[1,5-a]pyrimidine-3-carboxamide]",> 9.00
10,"NC(=S)c1c(N)nn2ccc(N3CCCC3c3cc(F)ccc3F)nc12 (stereo not drawn) [Example 31, 2-amino-5-(2-(2,5-difluorophenyl)pyrrolidin-1-yl)pyrazolo[1,5-a]pyrimidine-3-thioamide]",> 9.00
11,Cn1cc(-c2c(N)nn3ccc(N4CCC[C@@H]4c4cc(F)ccc4F)nc23)cn1 [Example 34],> 9.00
12,"Nc1nn2ccc(N3C[C@@H](F)C[C@@H]3c3cc(F)ccc3F)nc2c1C(=O)NC1CC1 [Example 51, 2-amino-N-cyclopropyl-5-((2R,4S)-2-(2,5-difluorophenyl)-4-fluoropyrrolidin-1-yl)pyrazolo[1,5-a]pyrimidine-3-carboxamide]",> 9.00
13,"CCNc1nn2ccc(N3CCC[C@@H]3c3cc(F)ccc3F)nc2c1C(=O)OCC [Example 22, ethyl (R)-5-(2-(2,5-difluorophenyl)pyrrolidin-1-yl)-2-(ethylamino)pyrazolo[1,5-a]pyrimidine-3-carboxylate]",> 7.00
14,"Nc1nn2ccc(N3C[C@@H](F)C[C@@H]3c3cc(F)ccc3F)nc2c1C(=O)NCCO [Example 49, 2-amino-5-((2R,4S)-2-(2,5-difluorophenyl)-4-fluoropyrrolidin-1-yl)-N-(2-hydroxyethyl)pyrazolo[1,5-a]pyrimidine-3-carboxamide]",> 9.00
15,"Nc1nn2ccc(N3CCCC3c3cc(F)ccc3F)nc2c1-c1nc(C(=O)N2CC[C@H](O)C2)cs1 (stereo partly drawn) [Example 30, (2-(2-amino-5-(2-(2,5-difluorophenyl)pyrrolidin-1-yl)pyrazolo[1,5-a]pyrimidin-3-yl)thiazol-4-yl)((S)-3-hydroxypyrrolidin-1-yl)methanone]",> 9.00

# Next, values leading:
row,pIC50,Structure (SMILES)
1,> 7.60,"CCOC(=O)c1c(NC(C)=O)nn2ccc(N3CCC[C@@H]3c3cc(F)ccc3F)nc12 [Example 9, ethyl (R)-2-acetylamino-5-(2-(2,5-difluorophenyl)pyrrolidin-1-yl)pyrazolo[1,5-a]pyrimidine-3-carboxylate]"
2,> 9.00,"NC(=O)c1c(N)nn2ccc(N3CCCC3c3cc(F)ccc3F)nc12 (stereo not drawn) [Example 6, 2-amino-5-(2-(2,5-difluorophenyl)pyrrolidin-1-yl)pyrazolo[1,5-a]pyrimidine-3-carboxamide]"
3,> 7.60,"Nc1nn2ccc(N3CCC[C@@H]3c3cc(F)ccc3F)nc2c1C(=O)N1CCC(O)C1 (stereo partly drawn) [Example 10, (2-amino-5-((R)-2-(2,5-difluorophenyl)pyrrolidin-1-yl)pyrazolo[1,5-a]pyrimidin-3-yl) (3-hydroxypyrrolidin-1-yl)methanone]"
4,> 9.00,"CCOC(=O)c1c(N)nn2ccc(N3C[C@@H](F)C[C@@H]3c3cc(F)ccc3F)nc12 [Example 35, ethyl 2-amino-5-((2R,4S)-2-(2,5-difluorophenyl)-4-fluoropyrrolidin-1-yl)pyrazolo[1,5-a]pyrimidine-3-carboxylate]"
5,> 9.00,"Nc1nn2ccc(N3CCC[C@@H]3c3cc(F)ccc3F)nc2c1C(=O)NCCO [Example 13, (R)-2-amino-5-(2-(2,5-difluorophenyl)pyrrolidin-1-yl)-N-(2-hydroxyethyl)pyrazolo[1,5-a]pyrimidine-3-carboxamide]"
6,> 7.00,"CCOC(=O)c1c(NC(=O)NC)nn2ccc(N3CCCC3c3cc(F)ccc3F)nc12 (stereo not drawn) [Example 7, ethyl 5-(2-(2,5-difluorophenyl)pyrrolidin-1-yl)-2-(3-methylureido)pyrazolo[1,5-a]pyrimidine-3-carboxylate]"
7,> 9.00,"CCOC(=O)c1csc(-c2c(N)nn3ccc(N4CCCC4c4cc(F)ccc4F)nc23)n1 (stereo not drawn) [Example 29, ethyl 2-(2-amino-5-(2-(2,5-difluorophenyl)pyrrolidin-1-yl)pyrazolo[1,5-a]pyrimidin-3-yl)thiazole-4-carboxylate]"
8,> 9.00,"CNC(=O)c1c(N)nn2ccc(N3CCC[C@@H]3c3cc(F)ccc3F)nc12 [Example 3, (R)-2-amino-5-(2-(2,5-difluorophenyl)pyrrolidin-1-yl)-N-methylpyrazolo[1,5-a]pyrimidine-3-carboxamide]"
9,> 7.00,"CCOC(=O)c1c(NCCN2CCOCC2)nn2ccc(N3CCC[C@@H]3c3cc(F)ccc3F)nc12 [Example 23, ethyl (R)-5-(2-(2,5-difluorophenyl)pyrrolidin-1-yl)-2-((2-morpholinylethyl)amino)pyrazolo[1,5-a]pyrimidine-3-carboxylate]"
10,> 7.60,Cc1coc(-c2c(N)nn3ccc(N4CCCC4c4cc(F)ccc4F)nc23)n1 (stereo not drawn) [Example 27]
11,> 9.00,"CCOC(=O)c1c(N)nn2ccc(N3CCCC3c3cc(F)ccc3F)nc12 (stereo not drawn) [Example 5, ethyl 2-amino-5-(2-(2,5-difluorophenyl)pyrrolidin-1-yl)pyrazolo[1,5-a]pyrimidine-3-carboxylate]"
12,> 6.00,"NC(=O)c1c(N)nn2ccc(N3C[C@@H](O)CC3c3cc(F)ccc3F)nc12 (stereo in doubt) [Example 47, 2-amino-5-((2R,4S)-2-(2,5-difluorophenyl)-4-hydroxypyrrolidin-1-yl)pyrazolo[1,5-a]pyrimidine-3-carboxamide]"
